# Measured values taken from patent US20050048508A1, “Trehalose receptor and method for detecting trehalose with the same” (KABUSHIKI KAISHA HAYASHIBARA SEIBUTSU KAGAKU KENKYUJO, priority 2002, published 2005).
# Molecular target: T1, T1R2 and T1R3 without G protein α-subunit (Mus musculus, UniProt Q925D8+Q925I4, E350G/G527D/I706N/P352R/R175Q)
# T1 construct: expressed in transfected cells; host or cells: 293 cells, RCB 1637 (human embryonic kidney)
# T1 sequence (Q925I4 20-843 R175Q/E350G/P352R/G527D): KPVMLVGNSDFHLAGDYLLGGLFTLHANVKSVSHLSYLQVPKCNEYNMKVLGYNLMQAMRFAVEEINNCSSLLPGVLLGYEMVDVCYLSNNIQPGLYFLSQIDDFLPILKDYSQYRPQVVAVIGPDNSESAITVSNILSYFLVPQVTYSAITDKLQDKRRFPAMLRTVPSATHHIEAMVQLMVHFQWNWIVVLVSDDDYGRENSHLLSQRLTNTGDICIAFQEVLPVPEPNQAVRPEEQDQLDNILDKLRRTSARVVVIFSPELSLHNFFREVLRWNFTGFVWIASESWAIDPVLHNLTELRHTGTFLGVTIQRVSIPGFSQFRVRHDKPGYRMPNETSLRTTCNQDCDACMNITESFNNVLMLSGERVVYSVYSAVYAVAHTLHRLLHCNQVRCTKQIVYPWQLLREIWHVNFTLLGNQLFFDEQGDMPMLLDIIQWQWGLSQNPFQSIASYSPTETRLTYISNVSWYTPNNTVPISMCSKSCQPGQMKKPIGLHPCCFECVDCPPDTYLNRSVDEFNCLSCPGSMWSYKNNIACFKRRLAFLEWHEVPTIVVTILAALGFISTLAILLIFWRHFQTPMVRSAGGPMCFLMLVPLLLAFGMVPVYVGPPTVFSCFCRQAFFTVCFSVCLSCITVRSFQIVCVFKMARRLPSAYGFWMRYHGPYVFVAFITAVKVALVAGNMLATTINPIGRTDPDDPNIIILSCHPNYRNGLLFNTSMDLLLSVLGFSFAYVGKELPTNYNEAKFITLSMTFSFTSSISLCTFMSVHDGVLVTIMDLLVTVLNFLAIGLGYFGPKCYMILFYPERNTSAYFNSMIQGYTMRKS
# T1 sequence (Q925D8 21-858 I706N): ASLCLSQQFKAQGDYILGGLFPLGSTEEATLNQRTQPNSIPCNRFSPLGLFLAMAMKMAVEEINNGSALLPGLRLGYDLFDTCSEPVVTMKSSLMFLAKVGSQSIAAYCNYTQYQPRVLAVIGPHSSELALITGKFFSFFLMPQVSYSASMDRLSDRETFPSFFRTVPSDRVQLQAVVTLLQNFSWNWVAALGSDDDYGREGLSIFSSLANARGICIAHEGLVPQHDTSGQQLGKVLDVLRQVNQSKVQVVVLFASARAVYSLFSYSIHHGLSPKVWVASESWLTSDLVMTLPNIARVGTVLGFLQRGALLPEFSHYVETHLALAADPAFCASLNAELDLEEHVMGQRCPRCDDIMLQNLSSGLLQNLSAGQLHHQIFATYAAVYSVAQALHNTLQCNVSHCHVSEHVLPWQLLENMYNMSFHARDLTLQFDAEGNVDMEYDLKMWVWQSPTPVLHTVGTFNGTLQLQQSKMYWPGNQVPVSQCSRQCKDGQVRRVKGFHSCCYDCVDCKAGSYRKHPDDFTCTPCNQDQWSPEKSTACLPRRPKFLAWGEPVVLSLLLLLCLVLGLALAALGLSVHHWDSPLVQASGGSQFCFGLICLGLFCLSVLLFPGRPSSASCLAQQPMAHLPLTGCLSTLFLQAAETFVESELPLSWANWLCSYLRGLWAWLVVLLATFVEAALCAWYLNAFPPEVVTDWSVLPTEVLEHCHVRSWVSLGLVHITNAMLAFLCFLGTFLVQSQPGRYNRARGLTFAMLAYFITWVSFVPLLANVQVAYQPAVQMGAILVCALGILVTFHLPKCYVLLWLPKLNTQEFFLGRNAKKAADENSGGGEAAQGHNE
# Test: Intracellular calcium ion assay, 293 cells expressing T1R2 and T1R3 without G protein α-subunits
# Type: cell-based
# Conditions: 293 cells: T1R2 + T1R3, no G protein α-subunit; 0.67 ml of 1 M saccharide solution added to 2 ml cell suspension
row,Influx of calcium ion,SMILES
1,Negative,"OC[C@H]1O[C@@](CO)(O[C@H]2O[C@H](CO)[C@@H](O)[C@H](O)[C@H]2O)[C@@H](O)[C@@H]1O [Sucrose, reference compound]"
2,Negative,OC[C@H]1O[C@H](O[C@H]2O[C@H](CO)[C@@H](O)[C@H](O)[C@H]2O)[C@H](O)[C@@H](O)[C@@H]1O [Trehalose]
